Data published in ChEMBL document CHEMBL3885881, “DrugMatrix”.

Organism: Rattus norvegicus
Assay: DrugMatrix - Regimen: Daily Repeat
Format: toxicity, organism-based, Sprague-Dawley
Parameters: regimen Daily Repeat, gender Male, age 6-8 weeks
Details: in vivo, po, route oral GAVAGE, vehicle .5 % CMC; for URIC ACID / ALANINE AMINOTRANSFERASE / ALBUMIN / ALKALINE PHOSPHATASE / ASPARTATE AMINOTRANSFERASE / BLOOD UREA NITROGEN / CARBON DIOXIDE / CHLORIDE / CHOLESTEROL / CREATINE PHOSPHOKINASE / CREATININE / GLUCOSE / LACTATE DEHYDROGENASE / LIPASE / PHOSPHORUS / POTASSIUM / SODIUM / TOTAL BILIRUBIN / TOTAL PROTEIN: tissue Plasma; for ABSOLUTE BASOPHIL / ABSOLUTE EOSINOPHIL / ABSOLUTE LYMPHOCYTE / ABSOLUTE MONOCYTE / ABSOLUTE SEGMENTED NEUTROPHIL / BASOPHIL / EOSINOPHIL / ERYTHROCYTE COUNT / HEMATOCRIT / HEMOGLOBIN / LEUKOCYTE COUNT / LYMPHOCYTE / MEAN CORPUSCULAR HEMOGLOBIN / MEAN CORPUSCULAR HEMOGLOBIN CONCENTRATION / MEAN CORPUSCULAR VOLUME / MONOCYTE / NEUTROPHIL / NUCLEATED RED BLOOD CELLS / PLATELET COUNT: tissue Blood
[1] = 3 mg/kg, 120 h, dose level Low, time 5 day
[2] = 29 mg/kg, 72 h, dose level High, time 3 day
[3] = 29 mg/kg, 120 h, dose level High, time 5 day

SMILES: O=c1[nH]cc(F)c(=O)[nH]1 [FLUOROURACIL]
- URIC ACID (3 mg/kg, 72 h, dose level Low, time 3 day): 2.6 mg/dL
- ABSOLUTE BASOPHIL [1]: 0 CELLS/uL
- ABSOLUTE EOSINOPHIL [1]: 0 CELLS/uL
- ABSOLUTE LYMPHOCYTE [1]: 14436 CELLS/uL
- ABSOLUTE MONOCYTE [1]: 30.67 CELLS/uL
- ABSOLUTE SEGMENTED NEUTROPHIL [1]: 1566.67 CELLS/uL
- BASOPHIL [1]: 0%
- EOSINOPHIL [1]: 0%
- ERYTHROCYTE COUNT [1]: 6.23 x10E6/uL
- HEMATOCRIT [1]: 38.2%
- HEMOGLOBIN [1]: 14.4 G/DL
- LEUKOCYTE COUNT [1]: 16.03 x10E3/uL
- LYMPHOCYTE [1]: 88.67%
- MEAN CORPUSCULAR HEMOGLOBIN [1]: 23.13 pg
- MEAN CORPUSCULAR HEMOGLOBIN CONCENTRATION [1]: 37.73 G/DL
- MEAN CORPUSCULAR VOLUME [1]: 61.3 fL
- MONOCYTE [1]: 0.33%
- NEUTROPHIL [1]: 11%
- NUCLEATED RED BLOOD CELLS [1]: 0 /100WBC
- PLATELET COUNT [1]: 1198.67 x10E3/uL
- ALANINE AMINOTRANSFERASE [1]: 42.67 u/L
- ALBUMIN [1]: 4.47 G/DL
- ALKALINE PHOSPHATASE [1]: 303.33 u/L
- ASPARTATE AMINOTRANSFERASE [1]: 79 u/L
- BLOOD UREA NITROGEN [1]: 16 mg/dL
- CARBON DIOXIDE [1]: 27.67 mmol/L
- CHLORIDE [1]: 99.67 MEQ/L
- CHOLESTEROL [1]: 71 mg/dL
- CREATINE PHOSPHOKINASE [1]: 253.67 u/L
- CREATININE [1]: 0.22 mg/dL
- GLUCOSE [1]: 146 mg/dL
- LACTATE DEHYDROGENASE [1]: 229 u/L
- LIPASE [1]: 8.33 u/L
- PHOSPHORUS [1]: 11.5 mg/dL
- POTASSIUM [1]: 6.67 MEQ/L
- SODIUM [1]: 144.17 MEQ/L
- TOTAL BILIRUBIN [1]: 0.2 mg/dL
- URIC ACID [1]: 1.6 mg/dL
- ABSOLUTE BASOPHIL [2]: 0 CELLS/uL
- ABSOLUTE EOSINOPHIL [2]: 63.33 CELLS/uL
- ABSOLUTE LYMPHOCYTE [2]: 11413 CELLS/uL
- ABSOLUTE MONOCYTE [2]: 90.33 CELLS/uL
- ABSOLUTE SEGMENTED NEUTROPHIL [2]: 633.33 CELLS/uL
- BASOPHIL [2]: 0%
- EOSINOPHIL [2]: 0.67%
- ERYTHROCYTE COUNT [2]: 5.41 x10E6/uL
- HEMATOCRIT [2]: 34.9%
- HEMOGLOBIN [2]: 13.17 G/DL
- LEUKOCYTE COUNT [2]: 12.2 x10E3/uL
- LYMPHOCYTE [2]: 93.67%
- MEAN CORPUSCULAR HEMOGLOBIN [2]: 24.33 pg
- MEAN CORPUSCULAR HEMOGLOBIN CONCENTRATION [2]: 37.73 G/DL
- MEAN CORPUSCULAR VOLUME [2]: 64.5 fL
- MONOCYTE [2]: 0.67%
- NEUTROPHIL [2]: 5%
- NUCLEATED RED BLOOD CELLS [2]: 0.33 /100WBC
- PLATELET COUNT [2]: 1461.33 x10E3/uL
- ALANINE AMINOTRANSFERASE [2]: 43.33 u/L
- ALBUMIN [2]: 4.47 G/DL
- ALKALINE PHOSPHATASE [2]: 451.67 u/L
- ASPARTATE AMINOTRANSFERASE [2]: 81.67 u/L
- BLOOD UREA NITROGEN [2]: 15.67 mg/dL
- CARBON DIOXIDE [2]: 26.33 mmol/L
- CHLORIDE [2]: 101.67 MEQ/L
- CHOLESTEROL [2]: 58.67 mg/dL
- CREATINE PHOSPHOKINASE [2]: 429.33 u/L
- CREATININE [2]: 0.19 mg/dL
- GLUCOSE [2]: 206.33 mg/dL
- LACTATE DEHYDROGENASE [2]: 150.67 u/L
- LIPASE [2]: 8 u/L
- PHOSPHORUS [2]: 12.07 mg/dL
- POTASSIUM [2]: 6.46 MEQ/L
- SODIUM [2]: 143.2 MEQ/L
- TOTAL BILIRUBIN [2]: 0.17 mg/dL
- TOTAL PROTEIN [2]: 6.07 G/DL
- URIC ACID [2]: 2.17 mg/dL
- ABSOLUTE BASOPHIL [3]: 0 CELLS/uL
- ABSOLUTE EOSINOPHIL [3]: 58 CELLS/uL
- ABSOLUTE LYMPHOCYTE [3]: 4679.33 CELLS/uL
- ABSOLUTE MONOCYTE [3]: 33 CELLS/uL
- ABSOLUTE SEGMENTED NEUTROPHIL [3]: 263 CELLS/uL
- BASOPHIL [3]: 0%
- EOSINOPHIL [3]: 1%
- ERYTHROCYTE COUNT [3]: 6.26 x10E6/uL
- HEMATOCRIT [3]: 39%
- HEMOGLOBIN [3]: 15.3 G/DL
- LEUKOCYTE COUNT [3]: 5.03 x10E3/uL
- LYMPHOCYTE [3]: 93%
- MEAN CORPUSCULAR HEMOGLOBIN [3]: 24.43 pg
- MEAN CORPUSCULAR HEMOGLOBIN CONCENTRATION [3]: 39.23 G/DL
- MEAN CORPUSCULAR VOLUME [3]: 62.37 fL
- MONOCYTE [3]: 0.67%
- NEUTROPHIL [3]: 5.33%
- NUCLEATED RED BLOOD CELLS [3]: 0 /100WBC
- PLATELET COUNT [3]: 964.67 x10E3/uL
- ALANINE AMINOTRANSFERASE [3]: 23.67 u/L
- ALBUMIN [3]: 4.03 G/DL
- ALKALINE PHOSPHATASE [3]: 148.33 u/L
- ASPARTATE AMINOTRANSFERASE [3]: 75.67 u/L
- BLOOD UREA NITROGEN [3]: 18.67 mg/dL
- CARBON DIOXIDE [3]: 25 mmol/L
- CHLORIDE [3]: 102.67 MEQ/L
- CHOLESTEROL [3]: 89.67 mg/dL
- CREATINE PHOSPHOKINASE [3]: 751.33 u/L
- CREATININE [3]: 0.12 mg/dL
- GLUCOSE [3]: 106.67 mg/dL
- LACTATE DEHYDROGENASE [3]: 166.33 u/L
- LIPASE [3]: 7.33 u/L
- PHOSPHORUS [3]: 7.93 mg/dL
- POTASSIUM [3]: 5.82 MEQ/L
- SODIUM [3]: 150.33 MEQ/L
- TOTAL BILIRUBIN [3]: 0.17 mg/dL
- TOTAL PROTEIN [3]: 5.57 G/DL
- URIC ACID [3]: 0.93 mg/dL
